Data taken from patent US8133849B2, “Herbicidal compounds” (Syngenta Limited, priority 2007, dated 2012).

What was measured:
Test in all cases: Example B2 herbicidal action, post-emergence, pots in glasshouse, damage score 0-10
Format in all cases: in vivo
Settings in all cases: application post-emergence, rate 1000 g/ha, evaluated after 13 days
Solanum nigrum = system: Solanum nigrum
Protocol: (§1) Seeds of a variety of test species were sown in standard soil in pots. After 8 days cultivation (post-emergence) under controlled conditions in a glasshouse (at 24/16° C., day/night; 14 hours light; 65% humidity), the plants were sprayed with an aqueous spray solution derived from the formulation of the technical active ingredient in acetone/water (50:50) solution containing 0.5% Tween 20 (polyoxyethelyene sorbitan monolaurate, CAS RN 9005-64-5). The test plants were then grown in a glasshouse under controlled conditions in a glasshouse (at 24/16° C., day/night; 14 hours light; 65% humidity) and watered twice daily. After 13 days, the test was evaluated (10=total damage to plant; 0=no damage to plant).

Ipomea hederaceae = system: Ipomea hederaceae
Protocol: as §1

Setaria faberi = system: Setaria faberi
Protocol: as §1

Amaranthus retroflexus = system: Amaranthus retroflexus
Protocol: as §1

Echinochloa crus-galli = system: Echinochloa crus-galli
Protocol: as §1

| Compound | SOLNI damage score (10=total damage to plant; 0=no damage to plant) (Solanum nigrum) | IPOHE damage score (10=total damage to plant; 0=no damage to plant) (Ipomea hederaceae) | SETFA damage score (10=total damage to plant; 0=no damage to plant) (Setaria faberi) | AMARE damage score (10=total damage to plant; 0=no damage to plant) (Amaranthus retroflexus) | ECHCG damage score (10=total damage to plant; 0=no damage to plant) (Echinochloa crus-galli) |
| --- | --- | --- | --- | --- | --- |
| O=S1(=O)C(c2ccc(Cl)cc2Cl)=C(OCC(F)(F)F)c2nccnc2N1CC(F)(F)F [Compound C106, 3-(2,4-dichloro-phenyl)-4-(2,2,2-trifluoro-ethoxy)-1-(2,2,2-trifluoro-ethyl)-1H-2-thia-1,5,8-triaza-naphthalene 2,2-dioxide] | 7 | 3 | 0 | 6 | 1 |
| CCN1c2nccnc2C(O)=C(c2ccccc2SC(F)(F)F)S1(=O)=O [Compound D7] | 5 | 3 | 0 | 9 | 0 |
| CC(C)(C)C(=O)OC1=C(c2cc(I)ccc2Cl)S(=O)(=O)N(CC(F)F)c2nccnc21 [Compound C55] | 7 | 8 | 2 | 7 | 2 |
| CCN1c2nccnc2C(OC(=O)C(C)(C)C)=C(c2c(F)ccc(Cl)c2Cl)S1(=O)=O [Compound C16] | 10 | 7 | 0 | 7 | 3 |
| CCN1c2nccnc2C(O)=C(c2c(Cl)ccc(Cl)c2C(F)(F)F)S1(=O)=O [Compound D26] | 8 | 8 | 4 | 8 | 7 |
| CC(C)C(=O)OC1=C(c2cc(C(F)(F)F)ccc2Cl)S(=O)(=O)N(CCCl)c2nccnc21 [Compound C123] | 10 | 4 | 1 | 4 | 2 |
| CCN1c2nccnc2C(O)=C(c2c(Cl)cccc2C(F)(F)F)S1(=O)=O [Compound D6] | 10 | 9 | 5 | 10 | 7 |
| CCc1cc(C)cc(CC)c1C1=C(OC(=O)C(C)C)c2nccnc2N(CC(F)F)S1(=O)=O [Compound C48] | 5 | 6 | 0 | 3 | 0 |
| O=S1(=O)C(c2c(Cl)cccc2C(F)(F)F)=C(O)c2nccnc2N1CC(F)F [Compound D11] | 10 | 9 | 8 | 10 | 8 |
| CC(C)C(=O)OC1=C(c2c(C(F)(F)F)ccc(Cl)c2Cl)S(=O)(=O)N(CC(F)F)c2nccnc21 [Compound C134] | 8 | 3 | 4 | 8 | 5 |
| CCN1c2nccnc2C(OC(=O)C(C)C)=C(c2c(Cl)cccc2C(F)(F)F)S1(=O)=O [Compound C30] | 10 | 9 | 5 | 8 | 6 |
| C=CCN1c2nccnc2C(OC(=O)SCC)=C(c2cc(Cl)ccc2C(F)(F)F)S1(=O)=O [Compound C119] | 6 | 3 | 3 | 3 | 5 |
| CC(C)C(=O)OC1=C(c2cc(Cl)ccc2C(F)(F)F)S(=O)(=O)N(CC(F)F)c2nccnc21 [Compound C113] | 10 | 9 | 6 | 8 | 7 |
| CC(C)(C)C(=O)OC1=C(c2cc(-c3cccc(Cl)c3)ccc2Cl)S(=O)(=O)N(CC(F)F)c2nccnc21 [Compound C56] | 2 | 0 | 0 | 10 | 0 |
| CCN1c2nccnc2C(OC(=O)C(C)(C)C)=C(c2c(Cl)ccc(Cl)c2Cl)S1(=O)=O [Compound C72] | 10 | 10 | 1 | 9 | 6 |
| CC(C)(C)C(=O)OC1=C(c2cc(C(F)(F)F)ccc2Br)S(=O)(=O)N(CC(F)F)c2nccnc21 [Compound C80] | 10 | 10 | 0 | 10 | 6 |
| CN1c2nccnc2C(OC(=O)C(C)(C)C)=C(c2c(Cl)ccc(Cl)c2Cl)S1(=O)=O [Compound C93] | 6 | 6 | 0 | 0 | 3 |
| COc1ccc(F)c(C2=C(OC(=O)C(C)C)c3nccnc3N(CC(F)F)S2(=O)=O)c1 [Compound C138] | 7 | 2 | 0 | 0 | 1 |
| CC(C)C(=O)OC1=C(c2ccc(Cl)cc2Cl)S(=O)(=O)N(CC(Cl)Cl)c2nccnc21 [Compound C116] | 10 | 6 | 3 | 10 | 2 |
| O=S1(=O)C(c2c(Cl)ccc(Cl)c2C(F)(F)F)=C(O)c2nccnc2N1CC(F)F [Compound D27] | 8 | 7 | 8 | 9 | 7 |
| CCN1c2nccnc2C(OC(=O)C(C)C)=C(c2ccccc2OC(F)(F)F)S1(=O)=O [Compound C13] | 9 | 10 | 3 | 10 | 10 |
